Reference: patent publication US20240058422A1, “GLUCAGON-LIKE PEPTIDE-1 RECEPTOR ANTAGONISTS” (INDIANA UNIVERSITY RESEARCH AND TECHNOLOGY CORPORATION, priority 2022, published 2024)
In brackets after ≈: the same amount, converted by molar mass. Like-named read-outs stand apart in the source and are kept apart here. Starred links: 1 amine or outer side, 2 acyl side, 3 side chain; linkers in the order of their positions; H or OH if unused. Non-standard residues stand in square brackets, D forms with d. Residues, ends and D or L forms follow the SMILES beside them. Groups on a side chain read outwards from the residue. *: point of attachment. γGlu = O=C(O)[C@H](CCC(=O)[*:2])N[*:1]; Palmitoyl = CCCCCCCCCCCCCCCC(=O)*; AEEA = NCCOCCOCC(=O)O; Aib = CC(C)(N)C(=O)O

Columns and labels:
GLP-1R = GLP-1R (Homo sapiens, UniProt P43220); test: GLP-1 receptor-mediated cAMP induction, luciferase reporter gene antagonism assay; type: cell-based; parameters: host or cells: HEK 293; conditions: antagonism of 0.05 nM GLP-1, HEK 293 cells
Protocol: GLP-1 Receptor-Mediated cAMP Induction The ability of peptides to stimulate or block cAMP induction at the GLP-1 receptor was examined by a luciferase-based reporter gene assay. Cotransfection of HEK 293 cells with the human GLP-1 receptor (Open Biosystems) and a cAMPinducible (cAMPresponsive element) luciferase gene constituted the cellular construct where receptor activation could be measured. Bioassays were performed by first serum depriving the cells for 16 h in 0.25% bovine growth serum (HyClone)-supplemented Dulbecco's modified Eagle's medium (Invitrogen) and then adding serial dilutions of the peptides over the appropriate concentration ranges in 96-well poly-D-lysine-coated plates (BD Biosciences). For antagonism assays, a constant concentration of GLP-1 (0.05 nM) was added to the assay plate after the diluted peptides. Incubation continued for 5 h at 37° C., 5% CO2 and was followed by the addition of an equivalent volume (100 μL) of LucLite luminescence substrate reagent (Perkin-Elmer). MicroBeta 1450 liquid scintillation counting (Perkin-Elmer) quantified the luminescence signal in counts per second (cps) after shaking the plate at 600 rpm for 3 min. Data was plotted using Origin software (OriginLab) and the effective concentration 50 (EC50) or inhibitory concentration 50 (IC50) was determined by sigmoidal fitting. Potency was determined by comparative analysis of relative EC50 or IC50 values. Each experiment was repeated at least three times with each sample assayed in duplicate.

[1] = 80 mM ammonium bicarbonate buffer, pH 7.7
[2] = PBS, pH 7.7, Solubility [mg/mL] PBS pH7.7, Table 4, PBS pH7.7
[3] = Table 4, Aib variants of 9-40am Jant4 K40[C16], read-out: Bioactivity IC50
[4] = 80 mM ammonium bicarbonate buffer, pH 7.7, Solubility [mg/mL] 80 mM/AmBicarb pH7.7, Table 5, 80 mM AmBicarb pH7.7
[5] = Table 5, d-AA variants of 9-40am Jant4 K40[C16], read-out: Bioactivity KC50
[6] = 80 mM ammonium bicarbonate buffer, pH 7.7, Solubility [mg/mL] 80 mM AmBicarb pH7.7, Table 2, 80 mM AmBicarb pH7.7

Chain of GLP-1R (P43220 24-463): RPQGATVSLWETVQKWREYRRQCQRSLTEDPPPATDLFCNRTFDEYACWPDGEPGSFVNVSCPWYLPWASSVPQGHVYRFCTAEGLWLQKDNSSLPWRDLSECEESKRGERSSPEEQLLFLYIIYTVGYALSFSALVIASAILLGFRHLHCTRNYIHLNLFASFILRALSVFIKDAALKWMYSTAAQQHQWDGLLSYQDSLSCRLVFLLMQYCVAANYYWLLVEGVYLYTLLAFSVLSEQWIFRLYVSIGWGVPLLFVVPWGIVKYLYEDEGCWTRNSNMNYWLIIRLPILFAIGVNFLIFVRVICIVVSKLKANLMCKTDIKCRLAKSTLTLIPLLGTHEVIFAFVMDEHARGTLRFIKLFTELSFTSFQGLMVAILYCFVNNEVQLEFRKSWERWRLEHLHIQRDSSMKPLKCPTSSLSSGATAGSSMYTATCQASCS

## CCCCCCCCCCCCCCCC(=O)NCCCC[C@H](NC(=O)[C@H](CO)NC(=O)[C@@H]1CCCN1C(=O)[C@@H]1CCCN1C(=O)[C@@H]1CCCN1C(=O)[C@H](C)NC(=O)CNC(=O)[C@H](CO)NC(=O)[C@H](CO)NC(=O)[C@@H]1CCCN1C(=O)CNC(=O)CNC(=O)[C@H](CCCCN)NC(=O)[C@@H](NC(=O)[C@H](CC(C)C)NC(=O)[C@H](Cc1c[nH]c2ccccc12)NC(=O)[C@H](C)NC(=O)[C@@H](NC(=O)[C@H](Cc1ccccc1)NC(=O)[C@H](CCC(=O)O)NC(=O)[C@H](CCCNC(=N)N)NC(=O)C(C)(C)NC(=O)[C@H](C)NC(=O)[C@H](CCC(N)=O)NC(=O)[C@H](CCC(=O)O)NC(=O)[C@H](CCC(=O)O)NC(=O)[C@H](CC(C)C)NC(=O)[C@H](Cc1ccc(O)cc1)NC(=O)[C@H](CO)NC(=O)[C@H](CO)NC(=O)[C@@H](NC(=O)[C@@H](N)CC(=O)O)C(C)C)[C@@H](C)CC)C(C)C)C(N)=O [compound 45] (H-DVSSYLEEQA[Aib]REFIAWLVKGGPSSGAPPPSK(Palmitoyl)-NH2; N-terminus assumed)
Solubility in buffer; [1]
  solubility: 11.1 mg/mL (≈ 3.06 mM)
Solubility in buffer; [2]
  solubility: 0.4 mg/mL (≈ 0.11 mM)
GLP-1R; [3]
  IC50: 8 nM

## CCCCCCCCCCCCCCCC(=O)NCCCC[C@H](NC(=O)[C@H](CO)NC(=O)[C@@H]1CCCN1C(=O)[C@@H]1CCCN1C(=O)[C@@H]1CCCN1C(=O)[C@H](C)NC(=O)CNC(=O)[C@H](CO)NC(=O)[C@H](CO)NC(=O)[C@@H]1CCCN1C(=O)CNC(=O)CNC(=O)[C@H](CCCCN)NC(=O)[C@@H](NC(=O)[C@H](CC(C)C)NC(=O)[C@H](Cc1c[nH]c2ccccc12)NC(=O)[C@H](C)NC(=O)[C@@H](NC(=O)[C@H](Cc1ccccc1)NC(=O)[C@H](CCC(=O)O)NC(=O)[C@H](CCCNC(=N)N)NC(=O)[C@@H](NC(=O)C(C)(C)NC(=O)[C@H](CCC(N)=O)NC(=O)[C@H](CCC(=O)O)NC(=O)[C@H](CCC(=O)O)NC(=O)[C@H](CC(C)C)NC(=O)[C@H](Cc1ccc(O)cc1)NC(=O)[C@H](CO)NC(=O)[C@H](CO)NC(=O)[C@@H](NC(=O)[C@@H](N)CC(=O)O)C(C)C)C(C)C)[C@@H](C)CC)C(C)C)C(N)=O [compound 46] (H-DVSSYLEEQ[Aib]VREFIAWLVKGGPSSGAPPPSK(Palmitoyl)-NH2; N-terminus assumed)
Solubility in buffer; [1]
  solubility: 17.5 mg/mL (≈ 4.79 mM)
Solubility in buffer; [2]
  solubility: 0.7 mg/mL (≈ 0.192 mM)
GLP-1R; [3]
  IC50: 7 nM

## CCCCCCCCCCCCCCCC(=O)NCCCC[C@H](NC(=O)[C@H](CO)NC(=O)[C@@H]1CCCN1C(=O)[C@@H]1CCCN1C(=O)[C@@H]1CCCN1C(=O)[C@H](C)NC(=O)CNC(=O)[C@H](CO)NC(=O)[C@H](CO)NC(=O)[C@@H]1CCCN1C(=O)CNC(=O)CNC(=O)[C@H](CCCCN)NC(=O)[C@@H](NC(=O)[C@H](CC(C)C)NC(=O)[C@H](Cc1c[nH]c2ccccc12)NC(=O)[C@H](C)NC(=O)[C@@H](NC(=O)[C@H](Cc1ccccc1)NC(=O)[C@H](CCC(=O)O)NC(=O)[C@H](CCCNC(=N)N)NC(=O)[C@@H](NC(=O)[C@H](C)NC(=O)[C@H](CCC(N)=O)NC(=O)[C@H](CCC(=O)O)NC(=O)[C@@H](CCC(=O)O)NC(=O)[C@H](CC(C)C)NC(=O)[C@H](Cc1ccc(O)cc1)NC(=O)[C@H](CO)NC(=O)[C@H](CO)NC(=O)[C@@H](NC(=O)[C@@H](N)CC(=O)O)C(C)C)C(C)C)[C@@H](C)CC)C(C)C)C(N)=O [compound 49] (H-DVSSYL[dE]EQAVREFIAWLVKGGPSSGAPPPSK(Palmitoyl)-NH2; N-terminus assumed)
Solubility in buffer; [4]
  solubility: > 20 mg/mL
GLP-1R; [5]
  IC50: 23 nM

## CCCCCCCCCCCCCCCC(=O)NCCCC[C@H](NC(=O)[C@H](CO)NC(=O)[C@@H]1CCCN1C(=O)[C@@H]1CCCN1C(=O)[C@@H]1CCCN1C(=O)[C@H](C)NC(=O)CNC(=O)[C@H](CO)NC(=O)[C@H](CO)NC(=O)[C@@H]1CCCN1C(=O)CNC(=O)CNC(=O)[C@H](CCCCN)NC(=O)[C@@H](NC(=O)[C@H](CC(C)C)NC(=O)[C@H](Cc1c[nH]c2ccccc12)NC(=O)[C@H](C)NC(=O)[C@H](NC(=O)[C@H](Cc1ccccc1)NC(=O)[C@H](CCC(=O)O)NC(=O)[C@H](CCCNC(=N)N)NC(=O)[C@@H](NC(=O)[C@H](C)NC(=O)[C@H](CCC(N)=O)NC(=O)[C@H](CCC(=O)O)NC(=O)[C@H](CCC(=O)O)NC(=O)[C@H](CC(C)C)NC(=O)[C@H](Cc1ccc(O)cc1)NC(=O)[C@H](CO)NC(=O)[C@H](CO)NC(=O)[C@@H](NC(=O)[C@@H](N)CC(=O)O)C(C)C)C(C)C)[C@H](C)CC)C(C)C)C(N)=O [compound 51] (H-DVSSYLEEQAVREF[dI]AWLVKGGPSSGAPPPSK(Palmitoyl)-NH2; N-terminus assumed)
Solubility in buffer; [4]
  solubility: > 20 mg/mL
GLP-1R; [5]
  IC50: 31 nM

## CCCCCCCCCCCCCCCC(=O)N[C@@H](CCC(=O)NCCOCCOCC(=O)NCCCC[C@H](NC(=O)[C@H](CO)NC(=O)[C@@H]1CCCN1C(=O)[C@@H]1CCCN1C(=O)[C@@H]1CCCN1C(=O)[C@H](C)NC(=O)CNC(=O)[C@H](CO)NC(=O)[C@H](CO)NC(=O)[C@@H]1CCCN1C(=O)CNC(=O)CNC(=O)[C@H](CCCCN)NC(=O)[C@@H](NC(=O)[C@H](CC(C)C)NC(=O)[C@H](Cc1c[nH]c2ccccc12)NC(=O)[C@H](C)NC(=O)[C@@H](NC(=O)[C@H](Cc1ccccc1)NC(=O)[C@H](CCC(=O)O)NC(=O)[C@H](CCCNC(=N)N)NC(=O)[C@@H](NC(=O)[C@H](C)NC(=O)[C@H](CCC(N)=O)NC(=O)[C@H](CCC(=O)O)NC(=O)[C@H](CCC(=O)O)NC(=O)[C@H](CC(C)C)NC(=O)[C@H](Cc1ccc(O)cc1)NC(=O)[C@H](CO)NC(=O)[C@H](CO)NC(=O)[C@@H](NC(=O)[C@@H](N)CC(=O)O)C(C)C)C(C)C)[C@@H](C)CC)C(C)C)C(N)=O)C(=O)O [compound 56] (H-DVSSYLEEQAVREFIAWLVKGGPSSGAPPPSK([AEEA-γGlu-Palmitoyl])-NH2; N-terminus assumed)
Solubility in buffer; [6]
  solubility: > 20 mg/mL

## CCCCCCCCCCCCCCCC(=O)N[C@@H](CCC(=O)N[C@@H](CCC(=O)NCCOCCOCC(=O)NCCOCCOCC(=O)NCCCC[C@H](NC(=O)[C@H](CO)NC(=O)[C@@H]1CCCN1C(=O)[C@@H]1CCCN1C(=O)[C@@H]1CCCN1C(=O)[C@H](C)NC(=O)CNC(=O)[C@H](CO)NC(=O)[C@H](CO)NC(=O)[C@@H]1CCCN1C(=O)CNC(=O)CNC(=O)[C@H](CCCCN)NC(=O)[C@@H](NC(=O)[C@H](CC(C)C)NC(=O)[C@H](Cc1c[nH]c2ccccc12)NC(=O)[C@H](C)NC(=O)[C@@H](NC(=O)[C@H](Cc1ccccc1)NC(=O)[C@H](CCC(=O)O)NC(=O)[C@H](CCCNC(=N)N)NC(=O)[C@@H](NC(=O)[C@H](C)NC(=O)[C@H](CCC(N)=O)NC(=O)[C@H](CCC(=O)O)NC(=O)[C@H](CCC(=O)O)NC(=O)[C@H](CC(C)C)NC(=O)[C@H](Cc1ccc(O)cc1)NC(=O)[C@H](CO)NC(=O)[C@H](CO)NC(=O)[C@@H](NC(=O)[C@@H](N)CC(=O)O)C(C)C)C(C)C)[C@@H](C)CC)C(C)C)C(N)=O)C(=O)O)C(=O)O [compound 58] (H-DVSSYLEEQAVREFIAWLVKGGPSSGAPPPSK([AEEA-AEEA-γGlu-γGlu-Palmitoyl])-NH2; N-terminus assumed)
Solubility in buffer; [6]
  solubility: > 25 mg/mL

## CCCCCCCCCCCCCCCC(=O)NCCCC[C@H](NC(=O)[C@H](CO)NC(=O)[C@@H]1CCCN1C(=O)[C@@H]1CCCN1C(=O)[C@@H]1CCCN1C(=O)[C@H](C)NC(=O)CNC(=O)[C@H](CO)NC(=O)[C@H](CO)NC(=O)[C@@H]1CCCN1C(=O)CNC(=O)CNC(=O)[C@H](CCCCN)NC(=O)[C@@H](NC(=O)[C@H](CC(C)C)NC(=O)[C@H](Cc1c[nH]c2ccccc12)NC(=O)C(C)(C)NC(=O)[C@@H](NC(=O)[C@H](Cc1ccccc1)NC(=O)[C@H](CCC(=O)O)NC(=O)[C@H](CCCNC(=N)N)NC(=O)[C@@H](NC(=O)[C@H](C)NC(=O)[C@H](CCC(N)=O)NC(=O)[C@H](CCC(=O)O)NC(=O)[C@H](CCC(=O)O)NC(=O)[C@H](CC(C)C)NC(=O)[C@H](Cc1ccc(O)cc1)NC(=O)[C@H](CO)NC(=O)[C@H](CO)NC(=O)[C@@H](NC(=O)[C@@H](N)CC(=O)O)C(C)C)C(C)C)[C@@H](C)CC)C(C)C)C(N)=O [compound 83] (H-DVSSYLEEQAVREFI[Aib]WLVKGGPSSGAPPPSK(Palmitoyl)-NH2)
Solubility in buffer; [1]
  solubility: 12.6 mg/mL (≈ 3.45 mM)
Solubility in buffer; PBS, pH 7.7
  solubility: 0.3 mg/mL (≈ 0.0821 mM)
